This is an account of results in US6369225B1, “Compounds having activity as inhibitors of cytochrome P450RAI” (Allergan Sales, Inc., priority 2000, dated 2002).

One test has as its target T1, P450RAI-1 (Homo sapiens, UniProt O43174).
T1 construct: expressed in transfected cells; host or cells: HeLa cells, stably transfected, hygromycin selection
T1 sequence (O43174 1-497): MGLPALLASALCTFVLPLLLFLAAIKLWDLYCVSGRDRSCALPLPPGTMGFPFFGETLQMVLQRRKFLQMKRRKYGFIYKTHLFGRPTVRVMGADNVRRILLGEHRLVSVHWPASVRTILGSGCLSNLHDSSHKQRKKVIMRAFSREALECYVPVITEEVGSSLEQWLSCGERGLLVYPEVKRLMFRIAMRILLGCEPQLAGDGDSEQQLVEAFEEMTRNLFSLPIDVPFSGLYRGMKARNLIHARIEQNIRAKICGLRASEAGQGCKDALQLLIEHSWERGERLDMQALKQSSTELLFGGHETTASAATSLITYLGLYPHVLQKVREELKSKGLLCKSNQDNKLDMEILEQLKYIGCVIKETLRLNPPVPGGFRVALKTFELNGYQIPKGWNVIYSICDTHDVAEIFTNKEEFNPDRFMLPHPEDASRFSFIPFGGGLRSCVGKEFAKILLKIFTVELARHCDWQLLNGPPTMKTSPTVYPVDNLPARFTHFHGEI
Briefly: P450RAI-1 cell-based inhibitor assay. Particulars: P450RAI-1 stably transfected HeLa cells, [3H]-RA metabolism, 3 hours at 37° C.; read-out: P450RAI INHIBITION DATA INTACT HELA IC50. Here is the method: P450RAI-1 stably transfected HeLa cells are maintained in […] tissue culture dishes in Modified Eagle's Medium (MEM) containing 10% Fetal Bovine Serum (FBS) and 100 μg/ml hygromycin. Exponentially growing cells are harvested by incubating in trypsin. Cells are then washed with 1× Phosphate Buffered Saline (PBS) and plated in a 48-well plate at 5×10^5 cells in 0.2 ml MEM medium containing 10% FBS and 0.05 μCi[^3H]-RA in the presence or absence of increasing concentrations of the test compounds. The compounds are diluted in 100% DMSO and then added in triplicate wells at either 10, 1 or 0.1 μM final concentration. As a positive control for RA metabolism inhibition, cells are also incubated with ketoconazole at 100, 10 and 1 μM. Cell are incubated for 3 hours at 37° C. […] The water soluble radioactivity is quantified using a β-scintillation counter. IC50 values represent the concentration of inhibitor required to inhibit all-trans-RA metabolism by 50 percent and are derived manually from log-transformed data.

For the next test, the target named is T2, RARγ (Homo sapiens, UniProt P13631).
T2 sequence (P13631 1-454): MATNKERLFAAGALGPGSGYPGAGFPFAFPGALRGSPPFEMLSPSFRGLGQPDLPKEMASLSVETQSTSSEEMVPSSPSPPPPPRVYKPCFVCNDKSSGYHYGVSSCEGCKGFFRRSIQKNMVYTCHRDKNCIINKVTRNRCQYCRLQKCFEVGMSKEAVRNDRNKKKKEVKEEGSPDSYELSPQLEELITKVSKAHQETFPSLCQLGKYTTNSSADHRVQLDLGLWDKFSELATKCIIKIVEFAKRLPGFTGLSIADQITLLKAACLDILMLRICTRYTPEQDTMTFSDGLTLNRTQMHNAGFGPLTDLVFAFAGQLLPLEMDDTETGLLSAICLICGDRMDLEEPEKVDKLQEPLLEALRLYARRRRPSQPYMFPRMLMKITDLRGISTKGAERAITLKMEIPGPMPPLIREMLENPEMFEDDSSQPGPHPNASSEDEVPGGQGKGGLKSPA
Briefly: ligand binding assay, RARγ. The note with it: Kd line of EC50/(EFFICACY)/Kd, read-out: RAR Kd γ. The source says:
(§1) Assays described below measure the ability of a compound to bind to, and/or activate various retinoid receptor subtypes. When in these assays a compound binds to a given receptor subtype and activates the transcription of a reporter gene through that subtype, then the compound is considered an agonist of that receptor subtype. […] In the below described assays the ability of the compounds to bind to RARα, RARβ, RARγ, RXRα, RXRβ and RXRγ receptors, and the ability or inability of the compounds to activate transcription of a reporter gene through these receptor subtypes can be tested.
(§2) A holoreceptor transactivation assay and a ligand binding assay which measure the antagonist/agonist like activity of the compounds of the invention, or their ability to bind to the several retinoid receptor subtypes, respectively, are described in published PCT Application No. WO WO93/11755 (particularly on pages 30-33 and 37-41) published on Jun. 24, 1993, the specification of which is also incorporated herein by reference. A detailed experimental procedure for holoreceptor transactivations has been described by Heyman et al. Cell 68, 397-406, (1992); Allegretto et al. J. Biol. Chem. 268, 26625-26633, and Mangelsdorf et al. The Retinoids: Biology, Chemistry and Medicine, pp 319-349, Raven Press Ltd., New York, which are expressly incorporated herein by reference. The results obtained in this assay are expressed in EC50 numbers, as they are also in the chimeric receptor transactivation assay. The results of ligand binding assay are expressed in Kd numbers. (See Cheng et al. Biochemical Pharmacology Vol. 22 pp 3099-3108, expressly incorporated herein by reference.)
(§3) The results if the ligand binding assay for several preferred compounds of the invention are included in Table 1.

For the next test, the target named is T3, RARβ (Homo sapiens, UniProt P10826).
T3 sequence (P10826 1-455): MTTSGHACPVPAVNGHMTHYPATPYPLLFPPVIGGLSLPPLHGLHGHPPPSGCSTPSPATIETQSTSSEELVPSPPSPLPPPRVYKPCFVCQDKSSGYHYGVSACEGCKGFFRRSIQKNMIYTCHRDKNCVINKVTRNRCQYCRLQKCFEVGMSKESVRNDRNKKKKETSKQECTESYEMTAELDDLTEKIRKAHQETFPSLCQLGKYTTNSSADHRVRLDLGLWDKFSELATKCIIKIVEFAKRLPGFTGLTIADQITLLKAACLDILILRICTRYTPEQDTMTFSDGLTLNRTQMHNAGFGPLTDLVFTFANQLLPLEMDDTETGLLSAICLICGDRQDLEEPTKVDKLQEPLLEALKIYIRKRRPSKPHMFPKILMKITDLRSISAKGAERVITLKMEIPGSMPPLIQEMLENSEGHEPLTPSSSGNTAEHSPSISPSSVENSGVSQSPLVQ
Briefly: ligand binding assay, RARβ. Particulars: Kd line of EC50/(EFFICACY)/Kd, read-out: RAR Kd β.
Source text: as §1
as §2, with “A detailed experimental procedure for holoreceptor transactivations has been described by Heyman et al. Cell 68, 397-406, (1992); Allegretto et al. J. Biol. Chem. 268, 26625-26633, and Mangelsdorf et al. The Retinoids: Biology, Chemistry and Medicine, pp 319-349, Raven Press Ltd., New York, which are expressly incorporated herein by reference.” left out

In the next test the target is T4, RARα (Homo sapiens, UniProt P10276).
T4 sequence (P10276 1-462): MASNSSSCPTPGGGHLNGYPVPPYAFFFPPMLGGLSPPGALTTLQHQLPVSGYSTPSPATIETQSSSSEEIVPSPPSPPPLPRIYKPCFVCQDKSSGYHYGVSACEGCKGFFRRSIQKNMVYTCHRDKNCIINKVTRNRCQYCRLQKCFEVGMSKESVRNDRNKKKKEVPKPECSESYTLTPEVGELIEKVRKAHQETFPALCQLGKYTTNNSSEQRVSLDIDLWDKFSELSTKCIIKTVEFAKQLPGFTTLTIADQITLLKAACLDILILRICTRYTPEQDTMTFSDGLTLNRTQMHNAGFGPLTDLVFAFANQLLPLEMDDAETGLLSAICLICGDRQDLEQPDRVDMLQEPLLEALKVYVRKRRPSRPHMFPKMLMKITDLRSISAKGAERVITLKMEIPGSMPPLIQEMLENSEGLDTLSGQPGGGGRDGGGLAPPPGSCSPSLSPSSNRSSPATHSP
Briefly: ligand binding assay, RARα. The note with it: Kd line of EC50/(EFFICACY)/Kd, read-out: RAR Kd α.
Source text: as §1, §2, §3

What is called IC50 is the concentration that gives 50% inhibition. As for `CC1(C)CC(C)(C)c2cc(C(=O)Oc3ccc(CC(=O)O)cc3)ccc2O1` [Compound 46, 1,2,2,4,4-Tetramethyl-chroman-6-carboxylic Acid 4-(carboxymethyl)phenyl Ester], on P450RAI-1, the IC50 was 2200 nM.

With `COc1c(C(C)(C)C)cc(C#Cc2ccc(CC(=O)O)c(F)c2)cc1C(C)(C)C` [Compound 145, [4-(3,5-Di-tert-butyl-4-methoxy-phenylethynyl)-2-fluoro-phenyl]-acetic Acid], the IC50 on P450RAI-1 was 200 nM.

As to `CC1(C)CC2(CC2)Oc2c(C3CC3)cc(C#Cc3ccc(C(=O)O)c(F)c3)cc21` [Compound 54, 4-[(8-Cyclopropyl-3,4-dihydro-4,4-dimethylspiro[2H-1-benzopyran-2,1′-cyclopropane]-6-yl)ethynyl]-2-fluoro-benzoic Acid], the IC50 on P450RAI-1 turned out to be 22 nM.

On to `CCc1cc(C#Cc2ccc(CC(=O)O)cc2)ccc1C1(OC(C)C)CC1` [Compound 98, {4-[4-(1-Isopropoxycyclopropyl)-3-ethyl-phenylethynyl]-phenyl}-acetic Acid], for which the IC50 on P450RAI-1 turned out to be 800 nM.

The Kd is the concentration at which binding is half-saturated. Turning to `CC1(C)CC2(CC2)Oc2ccc(C#Cc3ccc(CC(=O)O)cc3)cc21` [Compound 42, Benzeneacetic Acid, 4-[(3,4-dihydro-4,4-dimethylspiro[2H-1-benzopyran-2,1′-cyclopropane]-6-yl)ethynyl]-], the Kd was over 10000 nM at RARγ, 3640 nM at RARβ and 15000 nM at RARα. Moreover, the IC50 on P450RAI-1 was determined as 190 nM.

Consider `CC1(C)CCN(C2CC2)c2ccc(C#Cc3ccc(C(=O)O)cc3)cc21` [Compound 62, 4-(1-Cyclopropyl-4,4-dimethyl-1,2,3,4-tetrahydroquinolin-6-yl-ethynyl)-benzoic Acid], for which the IC50 on P450RAI-1 is over 10000 nM.

Take `COc1c(C(C)(C)C)cc(C#Cc2ccc(CC(=O)O)cc2)cc1C(C)(C)C` [Compound 143, [4-(3,5-Di-tert-butyl-4-methoxy-phenylethynyl)-phenyl]-acetic Acid]: the concentration for half-maximal inhibition (IC50) at P450RAI-1 amounted to 800 nM.

`CC1(C)CN(C2CC2)Cc2ccc(C#Cc3ccc(CC(=O)O)cc3)cc21` [Compound 24, [4-(2-Cyclopropyl-4,4-dimethyl-1,2,3,4-tetrahydro-isoquinoline-6-yl-ethynyl)-phenyl]-acetic Acid]: at P450RAI-1, the IC50 was 3000 nM.

`CC1(C)CC2(CC2)Oc2c(C3CC3)cc(C#Cc3ccc(C(=O)O)cc3)cc21` [Compound 52, Benzoic Acid, 4-[(8-cyclopropyl-3,4-dihydro-4,4-dimethylspiro[2H-1-benzopyran-2,1′-cyclopropane]-6-yl)ethynyl]-]: the IC50 on P450RAI-1 stood at 50 nM.

For the compound `CCc1cc(C#Cc2ccc(CC(=O)O)cc2)cc2c1OC(C)(C)CC2(C)C` [Compound 56, [4-(8-Ethyl-2,2,4,4-tetramethyl-chroman-6-yl-ethynyl)phenyl]acetic Acid], the IC50 at P450RAI-1 was 130 nM.

For the compound `CC1(C)CCC(n2ccnc2)c2ccc(C#Cc3ccc(C(=O)O)cc3)cc21` (stereo not shown) [Compound 139], the IC50 at P450RAI-1 stood at 50 nM.

On to `O=C(O)c1ccc(C#Cc2ccc(C3(N(Cc4ccccc4)Cc4ccccc4)CC3)cc2)cc1` [Compound 114, 4-[4-(1-Dibenzylamino-cyclopropyl)-phenylethynyl]-benzoic Acid], for which the Kd on RARγ and at RARα was over 10000 nM in each case. Besides, the IC50 at P450RAI-1 was over 10000 nM.

`CCN(Cc1ccc(C#Cc2ccc(C(=O)O)cc2)cc1C(C)C)C1CC1` [Compound 134, 4-{4-[(Cyclopropyl-ethyl-amino)-methyl]-3-isopropyly-phenylethynyl}-benzoic Acid]: the IC50 at P450RAI-1 was 5000 nM.

Take `CC1(C)CC2(CC2)Oc2c(C3CC3)cc(C(=O)Oc3cccc(CC(=O)O)c3)cc21` [Compound 60, Spiro[2H-1-benzopyran-2,1′-cyclopropane]-6-carboxylic Acid, 8-cyclopropyl-3,4-dihydro-4,4-dimethyl-, 3-(carboxymethyl)phenyl Ester]: on P450RAI-1, the IC50 turned out to be 1600 nM.

Regarding `CC1(C)CCC(=O)c2ccc(C(=O)Oc3ccc(CC(=O)O)cc3)cc21` [Compound 20, 8,8-Dimethyl-5-oxo-5,6,7,8-tetrahydro-naphthalene-2-carboxylic Acid-4-(carboxymethyl)phenyl Ester], the IC50 on P450RAI-1 was over 10000 nM.

As for `Cc1cc(C#Cc2ccc(CC(=O)O)cc2)ccc1Cn1ccnc1` [Compound 121, [4-(4-Imidazol-1-yl-methyl-3-methyl-phenylethynyl)-phenyl]-acetic Acid], the Kd was over 100000 nM at RARγ and over 10000 nM on RARα.
